Test results from US20120059021A1, “COMPOSITIONS AND METHODS FOR TREATING CANCER AND METHODS FOR PREDICTING A RESPONSE TO SUCH TREATMENTS” (UNIVERSITY OF WASHINGTON, priority 2008, published 2012).

Tests used:
COLO829 = experiment: Flow cytometry for active (cleaved) caspase-3, COLO829; format: cell-based, human; settings: WNT3A, 2 μM PLX4720, 24 hours
Description: (§1) Flow cytometry for Active Caspase-3. Cells were seeded in a 6-well dish at a density to achieve 90-100% confluence at harvest. 24 hours after seeding, cells were treated with the indicated conditions for the indicated amount of time. At the time of collection, supernatants were collected and pooled with trypsinized cells. Cells were fixed with 4% paraformaldehyde and permeabilized according to vendor's protocol for Cleaved Caspase-3 (Asp175) Antibody (AlexaFluor 488 Conjugate) (catalog #9669) (Cell Signaling, Beverly Mass.). The antibody was used at a final dilution of 1:100. Flow was performed on a BD FACSCanto H, and data analysed with FlowJo 8.8.6 (Tree Star) software. Experiments were performed with biological triplicates and data are representative of at least three independent experiments. For experiments involving siRNAs, cells were reverse transfected with 20 nM siRNA in 6-well dishes in triplicate with RNAiMax according to manufacturer's protocol. 48 hours following transfection, cells were treated with the indicated conditions for 24 hours and then harvested for analysis. Cells were harvested, stained, and analyzed as described above.

ppERK1/2 [1] = experiment: Capillary-based isoelectric focusing of ppERK1/2 in fine needle aspirates of xenograft tumors; format: in vivo, mouse; settings: two hours after initial 50 mg/kg PLX4720 vs baseline
Description: FIG. 10A depicts a schematic representation of the capillary-based isoelectric focusing method of detecting levels of ppERK1/2 in fine needle aspirates of xenograft tumors from vehicle or PLX4720 treated mice (top panel). Fine needle aspiration procedures (FNA) were performed on xenograft tumors three days prior to treatment for baseline samples and 2 hours after the initial oral gavage treatment of 50 mg/kg PLX4720. FNAs were analyzed for ppERK1/2 and HSP70 for normalization by capillary-based isoelectric focusing on a Nanopro1000 instrument (Cell Biosciences)(bottom panel). […] FNAs of xenograft tumors three days before treatment (baseline) or two hours following the initial treatment of 50 mg/kg PLX4720 were analyzed for ppERK1/2 and normalized to levels of HSP70. Columns and error bars represent the mean and standard deviation, respectively, from three xenograft tumors. […] FIG. 10D is a graph of results from an experiment in which xenograft tumors from FIG. 2A were sectioned, stained with hematoxylin- and eosin, and analyzed for mitotic cells by microscopy under high-power as described elsewhere herein. […]
Xenograft assays. […] Tumor size was determined by caliper measurements of tumor length and width every 3 to 4 days. Tumor volume was then calculated using the following formula: volume=(width)^2×length/2. […]

Wnt/β-catenin signaling [2] = experiment: WNT3A-mediated reporter activity in primary melanocytes; format: cell-based, human; settings: HEMs
A375 cells = experiment: TUNEL assay; format: cell-based, human
Description: TUNEL. Glass coverslips were coated with poly-L-lysine in a 24-well dish, rinsed with PBS, and dried. Cells were seeded at a density to achieve 90-100% at harvest. 24 hours after seeding, cells were treated with the indicated conditions and incubated for 24 hours. TUNEL staining was performed according to vendor's protocol (cat#12 156 792 910) (Roche Indianapolis, Ind.). Briefly, media was gently aspirated and cells were fixed in 4% paraformaldehyde for 1 hour at room temperature. Cells were gently rinsed twice with PBS and permeabilized with 0.1% Triton X-100 in 0.1% sodium citrate for 2 minutes on ice. Cells were rinsed twice with PBS, and 40 uL of TUNEL reaction mixture was added directly on top of the slide and incubated for 1 hour at 37° C. in a humidified incubator. Slips were rinsed 3 times and mounted on superfrost plus glass slides (cat#48311-703 VWR West Chester, Pa.) with Prolong Gold anti-fade mounting media containing DAPI (cat# P36931 Invitrogen; Grand Island, N.Y.). Images were obtained on a Nikon TiE inverted widefield high-resolution microscope (Nikon Melville, N.Y.).

Wnt/β-catenin signaling [3] = experiment: β-catenin activated reporter (BAR) luciferase assay in A375 melanoma cells
From the text: By way of non-limiting example, Wnt/β-catenin signaling can be measured using the BAR reporter described in detail elsewhere herein. Briefly, the BAR (β-catenin activated reporter) is a lentiviral plasmid which provides for expression of luciferase in response to Wnt/β-catenin signaling. Output can be measured with an automated luminescence plate reader.
Detailed information on the β-catenin activated reporter (BAR) has been previously described (23). Briefly, the β-catenin activated reporter (pBAR) is a lentiviral plasmid that contains 12 TCF/LEF binding sites (5′-[sequence]-3′) each separated by distinct 5 base-pair linkers upstream of a minimal promoter and the firefly luciferase open reading frame. The reporter also contains a separate PGK promoter that constitutively drives the expression of a puromycin resistance gene for mammalian cell selection. […] PLX4720 was purchased from Symansis (Australia cat# SY-PLX4720). CHIR99021 was purchased from Axon MedChem (Gronigen, Netherlands catalog #Axon1386). Z-VAD-FMK was purchased from R&D systems (Minneapolis, Minn. cat# FMKSP01).
Low throughput BAR reporter assays. Cells were plated in 96-well plates.

MEL624 = experiment: Flow cytometry for active (cleaved) caspase-3, MEL624; format: cell-based, human; settings: WNT3A, 2 μM PLX4720, 24 hours
Description: as §1

ppERK1/2 [4] = experiment: Immunoblot for dual-phosphorylated ERK1/2 in melanoma cells; format: cell-based, human
From the text: By way of non-limiting example, inhibition of ERK signaling can be measured by determining the level of dual-phosphorylated ERK1/2 (ppERK1/2) as described in detail elsewhere herein. In brief, the level of ppERK1/2 can be detected by immunoblot assay.

GSK3β = experiment: Immunoblot for activating auto-phosphorylation of GSK3β in A375 cells; format: cell-based, human
A375 = experiment: qPCR of endogenous Wnt target gene AXIN2, A375; format: cell-based, human; settings: A375; WNT3A CM, 2 μM PLX4720, 24 hours
From the text: RNA purification and qRT-PCR analysis. RNA was purified using the RNeasy kit following the manufacturer's protocol (Qiagen; Maryland, Md.). cDNA was synthesized using RevertAid™ M-MuLV Reverse Transcriptase (Fermentas; Ontario, CAN). Light Cycler FastStart DNA Master SYBR Green1 (Roche; Mannheim, Germany) was used for real-time PCR as previously described (53). Quantitative PCR results presented in the manuscript are averages of a minimum of three biologic replicates.

Structure (SMILES): CCCS(=O)(=O)Nc1ccc(F)c(C(=O)c2c[nH]c3ncc(Cl)cc23)c1F [PLX4720, N-[3-[(5-Chloro-1H-pyrrolo[2,3-b]pyridin-3-yl)carbonyl]-2,4-difluorophenyl]-1-propanesulfonamide]
- SYNERGISTIC APOPTOSIS WITH WNT AND PLX4720? (COLO829): YES
- ppERK2 in xenograft tumors (normalized to HSP70) (ppERK1/2 [1]): significantly less ppERK2
- Wnt/β-catenin signaling (Wnt/β-catenin signaling [2]): no detectable effect
- TUNEL staining (A375 cells; A375, agents individually): minimal TUNEL-positivity
- TUNEL staining (A375 cells; WNT3A and 2 μM PLX4720, 24 hours): presence of apoptotic cell death
- activation of BAR (Wnt/β-catenin signaling [3]; A375, PLX4720 on its own): does not lead to any measurable activation of BAR on its own
- Wnt/β-catenin signaling (BAR activity) (Wnt/β-catenin signaling [3]; A375, in the presence of WNT3A): enhanced Wnt/β-catenin signaling in a dose-dependent manner
- Combination indices (BAR activity) (Wnt/β-catenin signaling [3]; WNT3A and PLX4720, fixed ratio doses, particularly at higher levels of BAR activity): less than 1
- SYNERGISTIC APOPTOSIS WITH WNT AND PLX4720? (MEL624): YES
- dual-phosphorylated ERK1/2 (ppERK1/2) (ppERK1/2 [4]; A375): dose-dependent inhibition
- time to inhibition of ppERK (ppERK1/2 [4]; A375, WNT3A and PLX4720 time course): ≤ 30 min
- ERK1/2 phosphorylation (ppERK1/2 [4]; six established melanoma lines harboring the BRAF^V600E mutation): inhibition of ERK1/2 phosphorylation
- activating auto-phosphorylation of GSK3B (GSK3β): lost
- SYNERGISTIC WNT ACTIVATION WITH PLX4720? (A375): YES
